Experiment: Stability test of Formula A, contents by gas chromatography
Type: physicochemical
Conditions: in Formula A; for Content T3 months (25/60) / Content T3 months (40/75): 3 months; for Content T3 months (25/60) / Content T7 months (25/60): 25° C. and 60% RH; for Content T3 months (40/75): 40° C. and 75% RH; for Content T7 months (25/60): 7 months; for Content T0 month: white glass flask
Protocol: Detection and measures of the valeric acid, ethyl lactate and linoleic acid were made by using Gas chromatography (GC). Approximately 490 mg of linoleic acid, 53 mg of valeric acid and 78 mg of ethyl lactate accurately weighed are introduced into a 50 ml volumetric flask. This is completed to volume with ethyl acetate. […] A dilution 1/20 is made and completed to volume with ethyl acetate and the solution is stirred to homogenize. Approximately 2.5 g of Formula tested is introduced into a 20 ml volumetric flask. This is completed to volume with ethyl acetate. […] The solution is limpid. Gas chromatography equipped with a Capillary Column HP-FFAP 25 m×320 μm and a FID detector at 250° C. 1 μl of the solution is injected in the inlet (250° C.) and eluted through the column with Helium at constant flow (3 ml/min). Valeric acid (≈5.2 min), linoleic acid (≈13.5 min) and ethyl lactate (≈2.7 min) are quantified and contents thereof (% w/w) are given by the ratio of the areas of the peak corresponding to valeric acid, linoleic acid or ethyl lactate in the chromatogram obtained with the sample preparation and the standard solution.

Compound: CCOC(=O)C(C)O (stereo not drawn) [Ethyl lactate]
- Content T3 months (25/60): 0.060 % w/w
- Content T3 months (40/75): 0.059 % w/w
- Content T7 months (25/60): 0.059 % w/w
- Content T0 month: 0.0625 % w/w

Compound: CCCCC(=O)O [Valeric acid]
- Content T3 months (25/60): 0.039 % w/w
- Content T3 months (40/75): 0.038 % w/w
- Content T7 months (25/60): 0.039 % w/w
- Content T0 month: 0.0425 % w/w

Compound: CCCCC/C=C\C/C=C\CCCCCCCC(=O)O [Linoleic acid]
- Content T3 months (25/60): 0.386 % w/w
- Content T3 months (40/75): 0.364 % w/w
- Content T7 months (25/60): 0.398 % w/w
- Content T0 month: 0.395 % w/w
